Data from patent US9321750B2, “ROR modulators and their uses” (INNOV17 LLC, priority 2012, dated 2016).

Columns and labels:
[1] = molecular target: T1, RORγ LBD (Homo sapiens (Human), UniProt P51449); assay: TR-FRET co-activator D22 interaction with RORγ LBD; assay type: biochemical
Text: (§1) The Time-Resolved Fluorescence Resonance Energy Transfer (TR-FRET) assay kit (Life Technologies) was used to measure compound efficacy to disrupt or enhance ligand-mediated interaction of the co-activator and co-repressor peptides with the purified GST-tagged (i) RORγ LBD or (ii) […]. The RORγ LBD and RORα LBD each have a basal level of interaction with the co-activator D22 or co-repressor NCoR1-D2 in the absence of ligand, thus it is possible to identify compounds that inhibit or induce RORγ and/or RORα co-activator/co-repressor interactions, thus determining RORα, RORγ, or RORα/RORγ compound selectivity. The assay was performed as per manufacturer's instructions and TR-FRET was assessed 2 and 20 hours post-assay initiation. Compounds were identified to (i) have no impact on either co-activator displacement or […] from the assessed LBD (ii) promote co-activator displacement from the assessed LBD (iii) promote co-repressor recruitment to the assessed LBD or (iv) concurrently promote co-activator displacement from the assessed LBD and co-repressor recruitment to the assessed LBD.

[2] = test system: IL-17AF; assay: TH17 cytokine inhibition as measured by ELISA: IL-17AF; assay type: cell-based; conditions: 120 h; human TH17 cells, 5 days differentiation, ELISA of supernatant
Procedure: (§2) Peripheral blood mononuclear cells (PBMCs) were sourced from freshly prepared leukocyte enriched plasma (buffy coat) from healthy volunteers from which PBMCs were isolated by density gradient centrifugation using Ficoll-Paque™ PLUS (GE Healthcare). Naïve CD4+ T cells were isolated using the Naïve CD4+ T cell Isolation Kit II (Miltenyi Biotec) as per manufacturer's instructions. CD4+ T cells were plated at 5×10^4 cells/well in 96 well plates pre-coated with immobilized human (h)-αCD3 antibody (eBioscience) then differentiated to TH17 cells using h-αCD28, h-αIFNγ, h-αIL4, h-IL6, h-IL23, h-IL1β, h-TGFβ1 (eBioscience) and maintained in a cell culture incubator at 37° C. with 5% CO2 in TexMACS Medium (Miltenyi Biotec) supplemented with 1% Penicillin/Streptomycin (Lonza) over 5 days.
(§3) Human CD4+ T cells were differentiated to TH17 cells as described in the presence or absence of various concentrations of compounds in a final concentration of 0.1% DMSO in TexMACS medium. Supernatants were collected and stored at −20° C. until they were to be assayed for IL-17A, IL-17F, IL-17AF, IL-21 and/or IL-22 levels as determined by Ready-Set-Go ELISA kits (eBioscience) as per manufacturer's instructions. Endpoint absorbance was read at 450 nm and 570 nm according to manufacturer's instructions (eBioscience) using a microplate reader (Perkin Elmer). The percentage of cytokine inhibition was calculated with reference to DMSO treated cells and the IC50s were determined by GraphPad Prism software and presented in the table below.

[3] = molecular target: T2, RORα LBD (Homo sapiens (Human), UniProt P35398); assay: TR-FRET co-repressor NCoR1-D2 interaction with RORα LBD; assay type: biochemical
Text: as §1

[4] = TH17 cell viability (Prestoblue); assay type: cell-based; set-up: concentration or dose not given beside the values; conditions: human; percentage of DMSO treated cells; read-out: % viability of compound treated TH17 cells
Procedure: as §2
Cells were assayed for viability in the presence or absence of compound using Prestoblue® Cell Viability Reagent (Life Technologies) as per manufacturer's instructions after 30 minutes incubation of TH17 cells with reagent. Absorbance was measured at 570 nm and 600 nm using a microplate reader (Perkin Elmer) and data were analyzed as per manufacturer's instructions. Cell viability was expressed as a percentage of DMSO treated cells.

[5] = test system: TH17 cells; assay: TH17 cellular proliferation (Prestoblue); assay type: cell-based; conditions: Homo sapiens, 120 h; 3 μM compound, after 5 day TH17 differentiation, relative to DMSO treated TH17 cells; read-out: % change in TH17 cell number
Procedure: as §2
Cellular proliferation was assessed in the presence or absence of 3 μM compound using Prestoblue® Cell Viability Reagent (Life Technologies) as per manufacturer's instructions using absorbance as the output measured by a microplate reader (Perkin Elmer) after 30 minutes of incubation of cells and reagent. A standard curve developed by plotting varying cell numbers versus absorbance was used to assess differences in cellular proliferation between compound treated or untreated cells after the 5 day TH17 differentiation period.

[6] = test system: IL-17A; assay: TH17 cytokine inhibition as measured by ELISA: IL-17A; assay type: cell-based; conditions: 120 h; human TH17 cells, 5 days differentiation, ELISA of supernatant
Procedure: as §2, §3

[7] = molecular target: T2, RORα LBD; assay: TR-FRET co-activator D22 interaction with RORα LBD; assay type: biochemical
Text: as §1

[8] = test system: IL-17F; assay: TH17 cytokine inhibition as measured by ELISA: IL-17F; assay type: cell-based; conditions: 120 h; human TH17 cells, 5 days differentiation, ELISA of supernatant
Procedure: as §2, §3

[9] = molecular target: T1, RORγ LBD; assay: TR-FRET co-repressor NCoR1-D2 interaction with RORγ LBD; assay type: biochemical
Text: as §1

[10] = molecular target: T1, RORγ LBD; assay: RORγ LBD binding (Human RORγ Assay System, INDIGO Biosciences); conditions: 0.5% DMSO
Procedure: Compound binding to the human RORγ LBD was assessed using the Human RORγ Assay System (INDIGO Biosciences Inc.) as per manufacturer's instructions.

[11] = test system: IL-23R; assay: Real-time qRT-PCR in TH17 cells: IL-23R gene expression; assay type: cell-based, human; set-up: key: A: No change in gene expression observed relative to DMSO treated Th17 cells; B: Decreased gene expression observed relative to DMSO treated Th17 cells; C: Increased gene expression observed relative to DMSO treated Th17 cells
Procedure: as §2
(§4) RNA was isolated from TH17 cells and cDNA was synthesized using the Verso cDNA kit (Thermo Scientific) as per manufacturer's instructions. IL-17A, IL-17F, IL-21, IL-22, G-CSF, IL-23R and FOXP3 gene expression were determined for compound treated and untreated TH17 cell samples using Solaris qPCR Gene expression assays (Thermo Scientific) with an iCycler iQ Real-Time PCR Detection System (Bio-Rad). Individual gene expression was normalized to a panel of six reference genes (ACTB, TBP, HPRT1, PGK1, TFRC and PPIA) (Thermo Scientific) and analyzed by REST 2009 (Qiagen) in accordance to MIQE guidelines (Bustin et al. (2009) Clin. Chem, 55:611-622). The effects of compounds on TH17 cytokine mRNA levels are presented as fold change in gene expression of compound treated TH17 cells relative to DMSO treated cells in the table below.

[12] = test system: IL-22; assay: Real-time qRT-PCR in TH17 cells: IL-22 gene expression; assay type: cell-based, human; set-up: key: A: No change in gene expression observed relative to DMSO treated Th17 cells; B: Decreased gene expression observed relative to DMSO treated Th17 cells; C: Increased gene expression observed relative to DMSO treated Th17 cells
Procedure: as §2, §4

[13] = test system: IL-21; assay: Real-time qRT-PCR in TH17 cells: IL-21 gene expression; assay type: cell-based, human; set-up: key: A: No change in gene expression observed relative to DMSO treated Th17 cells; B: Decreased gene expression observed relative to DMSO treated Th17 cells; C: Increased gene expression observed relative to DMSO treated Th17 cells
Procedure: as §2, §4

[14] = test system: FOXP3; assay: Real-time qRT-PCR in TH17 cells: FOXP3 gene expression; assay type: cell-based, human; set-up: key: A: No change in gene expression observed relative to DMSO treated Th17 cells; B: Decreased gene expression observed relative to DMSO treated Th17 cells; C: Increased gene expression observed relative to DMSO treated Th17 cells
Procedure: as §2, §4

[15] = test system: IL-17A; assay: Real-time qRT-PCR in TH17 cells: IL-17A gene expression; assay type: cell-based, human; set-up: key: A: No change in gene expression observed relative to DMSO treated Th17 cells; B: Decreased gene expression observed relative to DMSO treated Th17 cells; C: Increased gene expression observed relative to DMSO treated Th17 cells
Procedure: as §2, §4

[16] = test system: IL-17F; assay: Real-time qRT-PCR in TH17 cells: IL-17F gene expression; assay type: cell-based, human; set-up: key: A: No change in gene expression observed relative to DMSO treated Th17 cells; B: Decreased gene expression observed relative to DMSO treated Th17 cells; C: Increased gene expression observed relative to DMSO treated Th17 cells
Procedure: as §2, §4

[17] = test system: IL-22; assay: TH17 cytokine inhibition as measured by ELISA: IL-22; assay type: cell-based; conditions: 120 h; human TH17 cells, 5 days differentiation, ELISA of supernatant
Procedure: as §2, §3

[18] = 2 hr, read-out: RORγ EC50 D22 co-activator displacement 2 hr
[19] = 20 hr, read-out: RORγ EC50 D22 co-activator displacement 20 hr
[20] = 2 hr, read-out: RORα EC50 NCoR1-D2 co-repressor recruitment 2 hr
[21] = 20 hr, read-out: RORα EC50 NCoR1-D2 co-repressor recruitment 20 hr
[22] = 2 hr, read-out: RORα EC50 D22 co-activator displacement 2 hr
[23] = 20 hr, read-out: RORα EC50 D22 co-activator displacement 20 hr
[24] = 2 hr, read-out: RORγ EC50 NCoR1-D2 co-repressor recruitment 2 hr
[25] = 20 hr, read-out: RORγ EC50 NCoR1-D2 co-repressor recruitment 20 hr

T1 sequence (P51449 269-508): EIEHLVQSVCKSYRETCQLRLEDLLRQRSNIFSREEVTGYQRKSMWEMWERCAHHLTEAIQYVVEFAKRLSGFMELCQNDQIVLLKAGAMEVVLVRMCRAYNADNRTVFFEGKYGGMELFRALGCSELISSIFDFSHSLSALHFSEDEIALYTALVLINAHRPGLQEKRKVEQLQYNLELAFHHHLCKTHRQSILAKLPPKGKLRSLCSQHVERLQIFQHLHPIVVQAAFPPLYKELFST
T2 sequence (P35398 272-510): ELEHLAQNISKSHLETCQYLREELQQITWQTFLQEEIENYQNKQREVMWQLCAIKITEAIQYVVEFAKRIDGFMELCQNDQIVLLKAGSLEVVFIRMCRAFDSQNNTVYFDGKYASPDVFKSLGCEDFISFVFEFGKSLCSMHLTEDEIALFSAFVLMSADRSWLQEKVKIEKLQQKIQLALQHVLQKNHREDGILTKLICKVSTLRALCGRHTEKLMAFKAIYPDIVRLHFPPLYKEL

| Structure (SMILES) | EC50 [1, 18] | EC50 [1, 19] | EC50 [3, 20] | EC50 [3, 21] | viability [4] | inhibition at 3 µM [5] | IC50 [6] | EC50 [7, 22] | EC50 [7, 23] | IC50 [8] | EC50 [9, 24] | EC50 [9, 25] | IC50 [17] | also measured |
| --- | --- | --- | --- | --- | --- | --- | --- | --- | --- | --- | --- | --- | --- | --- |
| CC(=O)Nc1ccc2c(c1)CCC(=O)N2Cc1ccc(C(O)(C(F)(F)F)C(F)(F)F)cc1 [Example 3, N-(1-(4-(1,1,1,3,3,3-hexafluoro-2-hydroxypropan-2-yl)benzyl)-2-oxo-1,2,3,4-tetrahydroquinolin-6-yl)acetamide] | > 30 µM | < 30 µM | > 30 µM | > 30 µM | > 80% | ≤ 50% | < 10 µM | > 30 µM | > 30 µM | < 10 µM | > 30 µM | < 30 µM | – | IC50 [2]: > 10 µM; IC50 [10]: > 10 µM |
| CS(=O)(=O)Nc1ccc2c(c1)CCC(=O)N2Cc1ccc(C(O)(C(F)(F)F)C(F)(F)F)cc1 [Example 6, N-(1-(4-(1,1,1,3,3,3-hexafluoro-2-hydroxypropan-2-yl)benzyl)-2-oxo-1,2,3,4-tetrahydroquinolin-6-yl)methanesulfonamide] | > 30 µM | > 30 µM | > 30 µM | > 30 µM | > 80% | ≤ 50% | < 10 µM | < 30 µM | < 30 µM | < 10 µM | < 30 µM | > 30 µM | < 10 µM | Fold change in mRNA level of compound treated TH17 cells relative to DMSO treated cells IL-23R [11]: A; Fold change in mRNA level of compound treated TH17 cells relative to DMSO treated cells IL-22 [12]: A; Fold change in mRNA level of compound treated TH17 cells relative to DMSO treated cells IL-21 [13]: A; Fold change in mRNA level of compound treated TH17 cells relative to DMSO treated cells FOXP3 [14]: A; Fold change in mRNA level of compound treated TH17 cells relative to DMSO treated cells IL-17A [15]: A; Fold change in mRNA level of compound treated TH17 cells relative to DMSO treated cells IL-17F [16]: B |
| CC(=O)Nc1ccc2c(c1)CCN2Cc1ccc(C(=O)Nc2ccccc2)cc1 [Example 15, 4-((5-acetamidoindolin-1-yl)methyl)-N-phenylbenzamide] | < 30 µM | < 30 µM | > 30 µM | > 30 µM | > 80% | ≤ 50% | < 10 µM | > 30 µM | > 30 µM | < 10 µM | > 30 µM | > 30 µM | < 10 µM | – |
| CC(=O)Nc1ccc2c(ccn2Cc2ccc(C(O)(C(F)(F)F)C(F)(F)F)cc2)c1 [Example 16, N-(1-(4-(1,1,1,3,3,3-hexafluoro-2-hydroxypropan-2-yl)benzyl)-1H-indol-5-yl)acetamide] | < 30 µM | < 30 µM | > 30 µM | < 30 µM | > 80% | ≤ 50% | < 10 µM | < 30 µM | > 30 µM | < 10 µM | > 30 µM | > 30 µM | < 10 µM | – |
